Tests used:
bone resorption [1] = assay: Tablets given orally to a patient afflicted with Paget's disease (Example 7); format: in vivo; settings: 25 mg P per tablet, orally twice daily for 6 months, patient of approximately 70 kilograms
Protocol: Tablets are prepared by conventional methods, formulated as follows: […]

[2] = test system: parathyroid hormone (PTH)-induced rise in serum total and ionized calcium levels; assay: Thyroparathyroidectomized (TPTX) rat model, in vivo bone resorption inhibition potency; set-up: species or system male Wistar rats; settings: subcutaneous injection, daily for 4 days, TPTX rats, PTH challenge; lowest dose that decreases the rise in serum calcium
Protocol: The compounds are evaluated for in vivo bone resportion inhibition potency by an animal model system known as the thyroparathyroidectomized (TPTX) rat model. The general principles of this model system are disclosed in Russell et al., Calcif. Tissue Research, 6, 183-196 (1970), and in Muhlbauer and Fleisch, Mineral Electrolyte Metab., 5, 296-303 (1981), the disclosures of which are incorporated herein by reference. The basic biochemical concept of the TPTX system is inhibition of the parathyroid hormone (PTH)-induced rise in serum total and ionized calcium levels by the respective bone active polyphosphonates.
Low calcium and low phosphorous diets used are prepared by Teklad^R Test Diets (Harlan Industries, Madison, Wisconsin 53711) in a pellet form of approximately 0.18% calcium and 0.22% phosphorous. The diets contain all the essential vitamins and minerals required for the rat, with the exception of calcium and phosphorous. The calcium and phosphorous levels of the pellets are verified analytically.
PTH is acquired as a powdered bovine extract (Sigma Chemical Co., P. O. Box 14508, St. Louis, Missouri, order #P-4410). PTH is prepared in 0.9% saline such that the final concentration is 100 µg PTH/ml, or approximately 200 U.S.P. units/ml. All solutions are filtered through a #4 Whatman Filter Paper and refiltered through a 0.45 µm Metricel ^R filter.
All solutions of compounds to be tested for bone resorption inhibition potency are prepared for subcutaneous injection in 0.9% normal saline and adjusted to pH 7.4 using NaOH and/or HCl. Dose solution calculation is made by considering the mass of powder (based on molecular weight, hydration) of the active material in mg/kg (body weight) that corresponds to mg P/kg. Concentrations are based on dosing 0.2 ml/100 grams of body weight. Typically, all compounds are administered at 0.01, 0.1, and 1.0 mg P/kg/day for 4 days in order to determine the lowest effective dose ("LED"). Where necessary the test is repeated, whereby the animals are administered with 0.5 LED in order to refine the determination of LED. Adjustments in dosage based on changes in body weight are made on a daily basis.
In this study 50 male Wistar rats weighing approximately 150-160 grams are thyroparathyroidectomized surgically by the breeder (Charles River Breeding Laboratories). All rats are double housed on arrival in suspended cages with Purina Laboratory Rodent Chow^R and tap water ad libitum. After acclimation to the laboratory environment for 3-5 days, the rats are placed on a low calcium, low phosphorous (.18%/.22%) diet (Teklad^R) and given 2% (W/V) calcium gluconate supplemented deionized water via water bottles.
On day three of low calcium diet, all rats are weighed. On day four, all rats are anesthetized with Ketaset^R (Ketamine Hydrochloride, 100 mg/ml, Bristol Myers), 0.10 ml/rat, and then bled from the retro-orbital venous plexus for serum total calcium analysis using Flame Atomic Absorption (FAA) or Nova 7+7 Automated Calcium Analyzer. All rats weighing less than 150 grams are eliminated from the study. Animals are then randomized statistically such that the mean total serum calcium for each group is the same. Only rats deemed hypocalcemic (total serum calcium ≦8.0 mg/dl) are placed in study groups comprising six animals per group.
Treatments with the various experimental compounds commence on day 6 and last through day 9 of the study. Dose solutions are prepared to be given at a constant rate of 0.2 ml/100 grams of body weight subcutaneously in the vental skin flap where the hind leg meets the torso. All rats are weighed and dosed daily. A 25 gauge 5/8" needle is used to administer drug, alternating right and left dose sites daily. On day 8, animals are changed to deionized, distilled water via water bottles. On day 9 all rats are fasted in the afternoon at approximately 4:0 P.M. On day 10 of study no treatment is given. […]

bone resorption [3] = assay: Capsules given orally to a patient afflicted with osteoporosis (Example 6); format: in vivo; settings: 25 mg P per capsule, orally twice daily for 6 months, patient of approximately 70 kilograms
Protocol: Capsules are prepared by conventional methods, comprised as follows: […]

bone resorption [4] = assay: Schenk model, in vivo bone resorption inhibition; set-up: species or system male Sprague Dawley rats; settings: subcutaneous injection, daily for 7 days, tibia metaphyseal trabecular bone content
Protocol: The compounds are evaluated for in vivo bone resorption inhibition and mineralization inhibition in an animal model system known in the field of bone metabolism as the Schenk Model. The general principles of this model system are disclosed in Shinoda et al., Calcif.
Preweaning 17-day-old (30 gms) male Sprague Dawley rats (Charles River Breeding Laboratories) are shipped with their mothers and placed in plastic cages with their mothers upon arrival. At 19 days of age, pups receiving Rat Chow and water ad libitum are randomly allocated into treatment or control groups comprising seven animals per group. On day 1 and again on day 7 all animals are given an intraperitoneal ("IP") injection of Calcein (1% solution in 0.9% saline solution; dosed at 0.2 ml/100 g body weight). On day 4 all animals are given an IP injection of tetracycline hydrochloride (1% solution in 0.9% saline solution; dosed at 0.2 ml/100 g body weight). These compounds label actively mineralizing bone and cartilage.
All solutions are prepared for subcutaneous injection in 0.9% normal saline and adjusted to pH 7.4 using NaOH and/or HCl. Dose solution calculation is made by considering the mass of powder (based on molecular weight, hydration) of the active material in mg/kg (body weight) that corresponds to mgP/kg. Concentrations are based on dosing 0.2 ml/100 g body weight. […] Compounds showing activity at 0.1 mg P/kg/day are then tested at logarithmic decrements down to 0.001 mg P/kg/day. Adjustments in dosage based on changes in body weight are made on a daily basis.
On day 8 after the start of dosing, all animals are sacrificed by IP overdose of pentabarbitol. Tibias are dissected free and placed in 70% ethyl alcohol. […] The tibia is sectioned longitudinally through the metaphyseal area. Specimens are stained on one surface with silver nitrate and mounted on microscope slides for evaluation with a Quantimet Image Analyzer (Cambridge Instruments, Inc.) using both incandescent and ultraviolet illumination. Metaphyseal trabecular bone content is measured in the region between the fluorescent label and the growth plate: expressed as percent of total area (bone + marrow). Epiphyseal growth plate width is obtained as the mean value of 10 equally-spaced measurements across the section.
Statistical evaluation of data is made using parametric and non-parametric analysis of variance and Wilcoxons rank sum test to determine a statistically significant effect compared to control animals.
The Schenk model provides data for in vivo bone resorption inhibition by the compounds.

[5] = test system: hypercalcemia of malignancy; assay: Injectable solution in patients with hypercalcemia of malignancy (Example 8); format: in vivo; settings: 0.07 mg P in 1.0 ml saline, pH 7.4, one injection daily for 4 days, patients of approximately 70 kilograms
Protocol: Injectable solutions are prepared by conventional methods using 1.0 ml of physiological saline solution and 0.07 mg P of N-(2'-(3'-methyl)-piperidinylidene)-amino-methane diphosphonic acid, adjusted to pH = 7.4.

skeleton = settings: Technetium-99m labelled, bone scintigraphy; Unterspann 1976; cited from earlier work
hamsters' incisors = settings: parenteral administration to hamsters; Landeck and Binus 1980; cited from earlier work

| SMILES | Lowest Effective (Antiresorptive) Dose-TPTX [2] [mg P/kg] | Lowest Effective (Antiresorptive) Dose - Schenk; Schenk LED (bone resorption [4]) [mg/P/kg] | further results |
| --- | --- | --- | --- |
| O=P(O)(O)C(O)(CC1CCCCN1)P(=O)(O)O (stereo not shown) [2-(2'-piperidinyl)-1-hydroxy-ethane-1,1-diphosphonic acid] | – | – | bone resorption in a patient afflicted with Paget's disease (bone resorption [1]): substantially reduce bone resorption |
| O=P(O)(O)C(CC1CCCCN1)P(=O)(O)O (stereo not shown) [2-(2'-piperidinyl)-EDP, 2-(2'-piperidinyl)-ethane-1,1-diphosphonic acid] | 0.01 | 0.01 | bone resorption in a patient afflicted with osteoporosis (bone resorption [3]): substantially reduce bone resorption |
| NCCC(O)(P(=O)(O)O)P(=O)(O)O [APD, 3-amino propane-1-hydroxy-1,1-DP] | 0.1 | 0.1 | – |
| O=P(O)(O)C(Cl)(Cl)P(=O)(O)O [Cl₂MDP, dichloromethane DP] | 1.0 | 1.0 | – |
| CC(O)(P(=O)(O)O)P(=O)(O)O [EHDP, ethane-1-hydroxy-1,1-diphosphonic acid] | 1.0 | 1.0 | – |
| O=P(O)(O)C(NC1=NCCCN1)P(=O)(O)O [N-(2'-(1',3'-diazinylidene))AMDP, N-(2'-(1',3'-diazinylidene))-aminomethane diphosphonic acid] | 0.001 | – | – |
| CC1CCCN=C1NC(P(=O)(O)O)P(=O)(O)O (stereo not shown) [N-(2'-(3'-methyl)piperidinylidene)AMDP, N-(2'-(3'-methyl)-piperidinylidene)-amino-methane diphosphonic acid] | 0.001 | 0.001 | alleviation of hypercalcemia of malignancy [5]: appreciable alleviation of hypercalcemia of malignancy |
| O=P(O)(O)C(N1CCCCC1)P(=O)(O)O [N-piperidinyl-methane-diphosphonic acid] | – | – | skeleton activity compared with EHDP (skeleton): less skeleton activity than EHDP; effect on the mineralization of the incisors (hamsters' incisors): Little or no effect on the mineralization of the incisors |
